4 compounds from patent publication US10206867B2, “Alcoholic extract of aerial parts of Solidago virgaurea subsp. alpestris, method of production thereof, and cosmetic or dermatological composition containing it” (CHANEL PARFUMS BEAUTE, priority 2015, dated 2019) can be followed below.

Experiment [1] is described as follows: Antioxidant activity, pholasin ABEL chemiluminescence test, hydroxyl radicals. In kind it is biochemical. The protocol: (§1) To determine the capacity of Goldenrod for trapping free radicals (hydroxyls, halogenated derivatives, peroxynitrites and superoxide radicals), i.e. its antioxidant capacity, chemiluminescence tests dependent on pholasin ABEL®1 were used (Knight Scientific Limited) according to the manufacturer's instructions. Briefly, various concentrations of ingredients were incubated with pholasin, a well known photoprotein that emits light when it binds to free radicals. D-Mannitol, albumin, vitamin E and L-ascorbic acid were used as positive controls for determining the capacity of the extract for trapping hydroxyl radicals, halogenated derivatives, peroxynitrites and superoxides, respectively.
All the determinations were repeated 5 times and the mean values were determined. The antioxidant capacity of the ingredient is expressed as the percentage reduction of the luminescence peak of Pholasin observed during the assay in the presence and in the absence of the active ingredient ±SD, with the untreated control represented at 0%.

The nature of experiment [2]: Antioxidant activity, pholasin ABEL chemiluminescence test, superoxides. In kind it is biochemical. The protocol: as §1, with “respectively. […] The antioxidant capacity of the ingredient is expressed as the percentage reduction of the luminescence peak of Pholasin observed during the assay in the presence and in the absence of the active ingredient ±SD, with the untreated control represented at 0%.” for “respectively.”

For experiment [3], the system named is Primary human keratinocytes (KC). Kind of experiment: Primary human keratinocytes (KC) under Paraquat stress: cell counts and qPCR of MMP1, p16INK4a. The experiment is classed as cell-based. As to conditions: for Mean number of cells counted, corrected for the cell division factor: 37500 cells seeded on day 0. The protocol:
Primary human keratinocytes derived from neonatal foreskin of individual donors (KC) were purchased from CellSystems (Troisdorf, Germany) and cultured in a KC growth medium (KGM, Clonetics, Gaithersburg, USA) supplemented with 0.1 ng/ml of recombinant human EGF, 5 μg/ml insulin, 0.5 μg/ml of hydrocortisone, 0.4% of bovine pituitary extract, 50 μg/ml of gentamicin and 50 ng/ml of amphotericin B. The RNA was isolated using the RNeasy 96 system ([…]), and 900 ng of total RNA was reverse-transcribed with the iScript cDNA Synthesis Kit (Biorad). qPCR was performed using the LightCycler 480 and the LightCycler 480 SYBR Green I Master (Roche, Basle, Switzerland). Expression of the target genes was normalized relative to expression of β-2 microglobulin. The sequences of the primers are as follows (5′-3′): B2Mf […] (SEQ ID NO:11); B2Mr: […] (SEQ ID NO:12);
The cells are seeded for the stress experiments on day 0 at 1500 cells/cm^2 and treated on days 2, 5 and 6 with Paraquat (PQ) (80 μm) for 24 hours. Treatment with Goldenrod was carried out on days 1 and 4 on untreated cells or cells treated with Paraquat.
A general note: Quantitative PCR measures a nucleic acid by following its amplification.

For experiment [4], the target named is T1, MMP3 (Homo sapiens, UniProt P08254).
T1 construct: purchased Biomol SE-109
T1 sequence (P08254 100-272 limits assumed): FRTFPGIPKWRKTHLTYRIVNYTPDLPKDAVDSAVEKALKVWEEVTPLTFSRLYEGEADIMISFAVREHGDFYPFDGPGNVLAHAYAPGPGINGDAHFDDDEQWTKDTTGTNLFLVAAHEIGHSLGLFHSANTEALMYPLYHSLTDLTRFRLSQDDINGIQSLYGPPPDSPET
The experiment can be described thus: MMP3 activity by fluorometric assay. In kind it is biochemical. To be noted: 5 mM; percentage activity relative to untreated control (100%). The protocol: (§2) To evaluate the effect of Goldenrod on the activity of MMP3 and MMP9, the enzymes (Biomol SE-109 and SE-244, respectively) were incubated with different concentrations of Goldenrod, each concentration in quintuplicate. The enzymatic reaction was induced by adding the fluorescent substrate specific to each MMP enzyme, dissolved in DMSO (Bachem H-2300, M-2055). The enzymatic reaction was monitored by spectrophotometry for one hour and the fluorescence was measured after excitation/emission at wavelengths of 360/460 nm for MMP3, or 320/405 nm for MMP9. The results are expressed as the mean of the replicates ±SD and are shown in […] activity of the MMPs relative to the untreated control, which represents 100%. As control, EDTA was used for inhibiting the activity of the MMPs.

In experiment [5] the target is T2, MMP9 (Homo sapiens, UniProt P14780).
T2 construct: purchased Biomol SE-244
T2 sequence (P14780 107-444 limits assumed): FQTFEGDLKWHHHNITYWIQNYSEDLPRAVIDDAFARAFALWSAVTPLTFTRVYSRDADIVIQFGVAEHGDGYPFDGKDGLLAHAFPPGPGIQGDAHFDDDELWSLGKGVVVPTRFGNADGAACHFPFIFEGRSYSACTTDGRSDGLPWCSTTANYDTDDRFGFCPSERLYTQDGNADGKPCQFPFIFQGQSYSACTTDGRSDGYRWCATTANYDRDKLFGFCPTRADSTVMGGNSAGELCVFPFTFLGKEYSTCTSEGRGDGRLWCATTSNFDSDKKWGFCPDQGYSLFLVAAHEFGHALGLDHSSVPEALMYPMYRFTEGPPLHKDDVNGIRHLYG
Kind of experiment: MMP9 activity by fluorometric assay. In kind it is biochemical. As to conditions: 5 mM; percentage activity relative to untreated control (100%). The protocol:
as §2

As to `OC[C@@H](O)[C@@H](O)[C@H](O)[C@H](O)CO` [D-Mannitol], the Mean % inhibition in experiment [1] (0.8 mM) was determined as 59.9 ± 3.6%; in experiment [1] (1 mM), 76.1 ± 14%; in experiment [1] (2 mM) it was 82.6 ± 14.8%; in experiment [1] (4 mM), 92.6 ± 4.7%; in experiment [1] (6 mM), 95.1 ± 0.3%.
Turning to `O=C1O[C@H]([C@@H](O)CO)C(O)=C1O` [L-ascorbic acid], the Mean % inhibition in experiment [2] (10 μmol/L) came out at 26.4 ± 3.5%; in experiment [2] (20 μmol/L), 43.9 ± 1.4%; in experiment [2] (40 μmol/L), 64.8 ± 0.8%; in experiment [2] (60 μmol/L), 75.3 ± 1%; in experiment [2] (80 μmol/L), 82.4 ± 1.8%.
Take `C[n+]1ccc(-c2cc[n+](C)cc2)cc1` [Paraquat]: the “Mean number of cells counted, corrected for the cell division factor” value was 405,000 cells in experiment [3] (D3, single treatment) and 546,666 cells in experiment [3] (D7, single treatment). For the same compound, in experiment [3] (treatment with Paraquat alone), the “Expression of MMP1” value was “induces”. The “Expression of p16INK4a” value in experiment [3] (treatment with Paraquat alone) is given as “induces”.
On to `O=C(O)CN(CCN(CC(=O)O)CC(=O)O)CC(=O)O` [EDTA], for which the “Enzyme activity MMP3” value in experiment [4] was 4.3 ± 5.3%. For the same compound, the “Enzyme activity MMP9” value in experiment [5] is reported as 0 ± 0.9%.
